Assays:
[1] = test system: Botrytis cinerea; experiment: Test B: gray mold, preventive spray on tomato seedlings; details: 10 ppm; gray mold on tomato; 100 = 100% disease control, 0 = no control
[2] = test system: Puccinia recondita f sp. tritici; experiment: Test F: wheat leaf rust, preventive spray on wheat seedlings; details: 10 ppm; wheat leaf rust; 100 = 100% disease control, 0 = no control
[3] = test system: Zymoseptoria tritici; experiment: Test E: wheat leaf blotch, preventive spray on wheat seedlings; details: 10 ppm; wheat leaf blotch; 100 = 100% disease control, 0 = no control
[4] = test system: Stagonospora nodorum; experiment: Test D: wheat glume blotch, preventive spray on wheat seedlings; details: 10 ppm; wheat glume blotch; 100 = 100% disease control, 0 = no control
[5] = test system: Erysiphe graminis f sp. tritici; experiment: Test G: wheat powdery mildew, preventive spray on wheat seedlings; details: 10 ppm; wheat powdery mildew; 100 = 100% disease control, 0 = no control

SMILES | Test B rating (% disease control) [1] | Test F rating (% disease control) [2] | Test E rating (% disease control) [3] | Test D rating (% disease control) [4] | Test G rating (% disease control) [5]
Cn1nc(C(F)(F)F)cc1OCC1CC(C(O)(Cn2cncn2)C(C)(C)C)=NO1 (single isomer, unassigned) [Compound 47] | 19% | 76% | 3% | 0% | 84%
CC(C)(C)C(O)(Cn1cncn1)C1=NOC(CO[Si](C)(C)C(C)(C)C)C1 (single isomer, unassigned) [Compound 10] | 0% | 19% | 0% | 0% | 13%
CC(C)(C)C(O)(Cn1cncn1)C1=NOC(Cc2ccccc2)C1 (single isomer, unassigned) [Compound 86] | 72% | 74% | 1% | 99% | 98%
OC(Cn1cncn1)(C1=NOC(Cn2cc(Br)cn2)C1)c1ccc(Cl)cc1 (single isomer, unassigned) [Compound 37] | 0% | 94% | 0% | 0% | 99%
CC(C)(C)CC1CC(C(O)(Cn2cncn2)c2ccc(Cl)cc2)=NO1 (single isomer, unassigned) [Compound 75] | 0% | 90% | 0% | 58% | 97%
CC(C)(C)C(O)(Cn1cncn1)C1=NOC(c2ccc(-n3cc(Br)cn3)cc2)C1 (single isomer, unassigned) [Compound 7] | 99% | 100% | 14% | 0% | 100%
OC(Cn1cncn1)(C1=NOC(COc2ccc3c(c2)OCO3)C1)c1ccc(Cl)cc1 (single isomer, unassigned) [Compound 43] | 31% | 100% | 0% | 38% | 98%
CC(C)(C)CC(O)(Cn1cncn1)C1=NOC(COc2ccc(Br)cc2)C1 (single isomer, unassigned) [Compound 171] | 0% | 100% | 0% | 63% | 94%
CC(C)(C)C(O)(Cn1cncn1)C1=NOC(COc2ccc3c(c2)OCO3)C1 (single isomer, unassigned) [Compound 46] | 19% | 85% | 0% | 76% | 73%
CC(C)(C)C(O)(Cn1cncn1)C1=NOC(COc2ncc(Cl)cn2)C1 (single isomer, unassigned) [Compound 99] | 0% | 95% | 0% | 63% | 96%
OC(Cn1cncn1)(C1=NOC(c2ccc(Cl)cc2)C1)c1ccc(Oc2ccccc2)cc1 (mixture of isomers) [Compound 152] | 0% | 50% | 34% | 0% | 87%
OC(Cn1cncn1)(C1=NOC(COc2ccc(Cl)nc2)C1)c1ccc(Cl)cc1 (single isomer, unassigned) [Compound 101] | 0% | 100% | 0% | 0% | 99%

Source: patent publication US20160242416A1, “FUNGICIDAL ISOXAZOLINE CARBINOLS” (E I DU PONT DE NEMOURS AND COMPANY, priority 2015, published 2016)
